Results reported in ChEMBL document CHEMBL4190384, “Design, synthesis and biological evaluation of substituted (+)-SG-1 derivatives as novel anti-HIV agents” (Bioorg Med Chem Lett, 2018).

Experiments:
[1] = test system: Human immunodeficiency virus 1; assay: (§1) Antiviral activity against HIV1 virions derived from HIV/[…] or HIV/HA virions infected 293T cells using human A549 cells as target cells assessed as inhibition of viral replication using compound pre-mixed virions followed by incubation with target cells for 24 hrs by luciferase reporter gene assay based defective HIV1 pseudoviral assay; assay type: functional, organism-based; settings: Human immunodeficiency virus 1, 24 h
A549 = assay: Cytotoxicity against human A549 cells at 10 uM after 48 hrs by CellTiter 96 AQueous one solution cell proliferation assay; assay type: cell-based; settings: a549, 48 h
[2] = test system: Human immunodeficiency virus 1; assay: as §1, with “HIV1 virions containing reverse transcriptase K103N mutant derived from” for “HIV1 virions derived from”; assay type: functional, organism-based; settings: Human immunodeficiency virus 1, 24 h
[3] = test system: Human immunodeficiency virus 1; assay: (§2) Resistance index, ratio of IC50 for antiviral activity against HIV1 virions containing reverse transcriptase K103N mutant derived from HIV/[…] or HIV/HA virions infected 293T cells using human A549 cells as target cells to IC50 for antiviral activity against wild type HIV1 virions derived from HIV/[…] or HIV/HA virions infected 293T cells using human A549 cells as target cells; assay type: functional
[4] = test system: Human immunodeficiency virus 1; assay: as §1, with “HIV1 virions containing reverse transcriptase Y181C mutant derived from” for “HIV1 virions derived from”; assay type: functional, organism-based; settings: Human immunodeficiency virus 1, 24 h
[5] = test system: Human immunodeficiency virus 1; assay: as §2, with “Y181C” for “K103N”; assay type: functional
[6] = test system: Human immunodeficiency virus 1; assay: as §1, with “HIV1 virions containing reverse transcriptase E138K/M184V mutant derived from” for “HIV1 virions derived from”; assay type: functional, organism-based; settings: Human immunodeficiency virus 1, 24 h
[7] = test system: Human immunodeficiency virus 1; assay: as §2, with “E138K/M184V” for “K103N”; assay type: functional
[8] = test system: Human immunodeficiency virus 1; assay: Antiviral activity against human HIV1 by VSV-G/HIV1 infection assay; assay type: functional, organism-based

SMILES | IC50 [1] | Activity (A549) | IC50 [2] | Ratio IC50 [3] | IC50 [4] | Ratio IC50 [5] | IC50 [6] | Ratio IC50 [7] | IC50 [8]
COc1cc2c(cc1OC)[C@H](c1cc(OC)c(OC)c(OC)c1)[C@@H](C)CC2 | 90 nM | Non-Toxic | 150 nM | 1.7 | > 10000 nM | >111 | 180 nM | 2 | –
COc1cc2c(cc1OC)N(c1cc(OC)c(OC)c(OC)c1)CCC2 | 4960 nM | Non-Toxic | – | – | – | – | – | – | –
COc1ccc([C@H]2c3cc(OC)c(OC)cc3C[C@H](C)[C@@H]2C)cc1OC | 860 nM | Non-Toxic | 1380 nM | 1.6 | > 10000 nM | >11.6 | 4020 nM | 4.7 | 1070 nM
COc1ccc([C@H]2c3cc(OC)c(OC)cc3C[C@@H]2C)cc1OC | 4420 nM | Non-Toxic | – | – | – | – | – | – | –
COc1ccc([C@@H]2c3cc(OC)c(OC)cc3C[C@H](C)[C@H]2C)cc1OC | > 10000 nM | Non-Toxic | – | – | – | – | – | – | –
COc1cc2c(cc1OC)[C@H](c1cc(OC)c(OC)c(OC)c1)[C@@H](C)C2 | 340 nM | Non-Toxic | – | – | – | – | – | – | –
COc1cc(CCC(=O)N2C(=O)OC[C@@H]2Cc2ccccc2)cc(OC)c1OC | > 10000 nM | Non-Toxic | – | – | – | – | – | – | –
COc1cc2c(cc1OC)[C@@H](c1ccc3c(c1)OCO3)[C@H](C)[C@@H](C)C2 | > 10000 nM | Non-Toxic | – | – | – | – | – | – | –
COc1cc([C@H]2c3c(cc(OC)c(OC)c3OC)C[C@H](C)[C@@H]2C)cc(OC)c1OC | 690 nM | Non-Toxic | 760 nM | 1.1 | > 10000 nM | >14.5 | 5910 nM | 8.6 | –
CO/N=C(\c1ccc(OC)c(OC)c1)c1cc(OC)c(OC)c(OC)c1 | > 10000 nM | Non-Toxic | – | – | – | – | – | – | –
COc1cc2c(cc1OC)[C@@H](c1cc(OC)c(OC)c(OC)c1)[C@H](C)CC2 | 1020 nM | Non-Toxic | 1730 nM | 1.7 | > 10000 nM | >9.8 | 7130 nM | 7 | –
COc1cc2c(cc1OC)[C@@H](c1cc(OC)c(OC)c(OC)c1)[C@H](C)[C@@H](C)C2 | > 10000 nM | Non-Toxic | – | – | – | – | – | – | –
COc1cc2c(cc1OC)[C@H](c1cc(OC)c(OC)c(OC)c1)[C@@H](C)[C@@H](C)C2 | 160 nM | Non-Toxic | 180 nM | 1.1 | 10800 nM | 67.5 | 1380 nM | 8.6 | –
COc1cc2c(cc1OC)N(c1cc(OC)c(OC)c(OC)c1)C(=O)CC2 | > 10000 nM | Non-Toxic | – | – | – | – | – | – | –
COc1ccc(/C(=N/O)c2cc(OC)c(OC)c(OC)c2)cc1OC | > 10000 nM | Non-Toxic | – | – | – | – | – | – | –
COc1ccc(C(=O)c2cc(OC)c(OC)c(OC)c2)cc1OC | > 10000 nM | Non-Toxic | – | – | – | – | – | – | –
CCC1CCc2cc(OC)c(OC)cc2N1c1cc(OC)c(OC)c(OC)c1 (racemic) | 720 nM | Non-Toxic | – | – | – | – | – | – | –
CCCC1CCc2cc(OC)c(OC)cc2N1c1cc(OC)c(OC)c(OC)c1 (racemic) | 1280 nM | Non-Toxic | – | – | – | – | – | – | –
COc1cc2c(cc1OC)N(c1cc(OC)c(OC)c(OC)c1)C(C)CC2 (racemic) | 940 nM | Non-Toxic | 1400 nM | 1.5 | > 10000 nM | >10.6 | 8530 nM | 9.1 | –
COc1cc2c(cc1OC)C(c1cc(OC)c(OC)c(OC)c1)CCC2 (racemic) | 6710 nM | Non-Toxic | – | – | – | – | – | – | –
Nc1ccn([C@@H]2CS[C@H](CO)O2)c(=O)n1 [LAMIVUDINE] | 510 nM | – | – | – | – | – | > 10000 nM | >19.6 | –
Cc1ccnc2c1NC(=O)c1cccnc1N2C1CC1 [NEVIRAPINE] | 13 nM | – | 910 nM | 70 | 2860 nM | 220 | 22 nM | 1.7 | –
